Results reported in patent publication US11890287B2, “Therapeutic compounds and compositions for treating social disorders and substance use disorders” (Kinoxis Therapeutics Pty Ltd, priority 2015, dated 2024).

Assays:
[1] = biological target: human V1a receptor (Homo sapiens, UniProt P37288); assay: Orthosteric binding against [3H]AVP
[2] = test system: Sprague Dawley rats; assay: Acute toxicity, single intravenous bolus dose 1-30 mg/kg, one week dose range finding study; type: in vivo; conditions: for Hunched posture or gait- mild (incidence) / Number of abnormalities detected: (incidence) / Palpebral closure- mild/moderate (incidence) / Piloerection- mild (incidence) / Reduced activity- mild (incidence): n 3
Procedure: The acute toxicity of the SOC-1 test item was assessed in Sprague Dawley rats following intravenous administration of a single bolus dose. A total of four groups of n=3 adult female rats were treated with 1, 3, 10 and 30 mg/kg doses of SOC-1. The rats were then observed for 7 days prior to termination on Study Day 8 without necropsy.
The design of this acute single dose toxicity study in rats was adapted from OECD Guideline for Testing of Chemicals No. 420 Acute Oral Toxicity—Fixed Dose Procedure’ 2001 (2) and the test facility Standard Operating Procedure SP_T002 ‘Dose Range Finding Study in Rodents’. The study procedures were conducted as outlined below and according to related test facility Standard Operating Procedures.
Briefly, on completion of the acclimation period the study was commenced with administration of the treatment on Study Day 1. […] Body weights were also collected daily. On Study Day 8 the surviving animals were culled without necropsy.
The test item treatments were administered as a bolus intravenous injection in a dose volume of 2 mL/kg on Study Day 1 with restraint on conscious animals (with the exception of Group 4 where the treatment was administered in a dose volume of 6 mL/kg on lightly anaesthetised animals following the administration of isofluorane anaesthetic).
Morbidity and mortality observations were recorded daily during the acclimation period and on Day 8, and twice daily from Day 1 through Day 7.
Clinical observations were conducted at least once during the acclimation period. Clinical observations were conducted at least once daily from Day 1 up to and including the day prior to termination. On the day of treatment the animals were monitored continuously for the first 30 min post-treatment with formal observations made at 30 minutes, 1 hour and 4 hours post-treatment.
The clinical observations included examination of animals for changes in skin and fur, eyes and mucous membranes, respiratory and circulatory function, gait and posture, behaviour, tremors or convulsions and any other abnormal findings.
The clinical observations also included daily examination of the tail for any injection site reaction (for example, erythema or oedema).
Body weight was recorded once during the acclimation period and daily from the time of treatment on Day 1 to Day 8. The mean body weight values for study days 1-8 are shown as group mean±standard deviation (SD) in FIG. 14.

[3] = In vitro plasma stability assay; type: in vitro ADME; conditions: human, incubated at body temperature
[4] = biological target: T1, H1 (Homo sapiens, UniProt P35367); assay: PDSP orthosteric binding screen
T1 construct: Psychoactive Drug Screening Program (PDSP)
From the text: (§1) Comprehensive screening of affinity for the orthosteric binding sites for numerous receptors from the Psychoactive Drug Screening Program (PDSP) have failed as yet to identify a target, despite the powerful OT-like behavioural effects of the compound evident in vivo and the clear activation of brain OT systems evident from our Fos data.

[5] = biological target: T2, Beta2 (Homo sapiens, UniProt P07550); assay: PDSP orthosteric binding screen
T2 construct: Psychoactive Drug Screening Program (PDSP)
From the text: as §1

[6] = biological target: T3, SERT (Homo sapiens, UniProt P31645); assay: PDSP orthosteric binding screen
T3 construct: Psychoactive Drug Screening Program (PDSP)
From the text: as §1

[7] = test system: Sigma 2; assay: PDSP orthosteric binding screen
From the text: as §1

[8] = biological target: T4, 5-HT1D (Homo sapiens, UniProt P28221); assay: PDSP orthosteric binding screen
T4 construct: Psychoactive Drug Screening Program (PDSP)
From the text: as §1

[9] = biological target: T5, Alpha2B (Homo sapiens, UniProt P18089); assay: PDSP orthosteric binding screen
T5 construct: Psychoactive Drug Screening Program (PDSP)
From the text: as §1

[10] = biological target: T6, 5-HT7 (Homo sapiens, UniProt P34969); assay: PDSP orthosteric binding screen
T6 construct: Psychoactive Drug Screening Program (PDSP)
From the text: as §1

[11] = biological target: T7, 5-ht5a (Homo sapiens, UniProt P47898); assay: PDSP orthosteric binding screen
T7 construct: Psychoactive Drug Screening Program (PDSP)
From the text: as §1

[12] = biological target: T8, Alpha1B (Homo sapiens, UniProt P35368); assay: PDSP orthosteric binding screen
T8 construct: Psychoactive Drug Screening Program (PDSP)
From the text: as §1

[13] = biological target: T9, 5-HT3 (Homo sapiens, UniProt P46098); assay: PDSP orthosteric binding screen
T9 construct: Psychoactive Drug Screening Program (PDSP)
From the text: as §1

[14] = biological target: T10, Alpha1D (Homo sapiens, UniProt P25100); assay: PDSP orthosteric binding screen
T10 construct: Psychoactive Drug Screening Program (PDSP)
From the text: as §1

[15] = biological target: T11, PBR (Rattus norvegicus, UniProt P16257); assay: PDSP orthosteric binding screen
T11 construct: Psychoactive Drug Screening Program (PDSP)
From the text: as §1

[16] = biological target: T12, M5 (Homo sapiens, UniProt P08912); assay: PDSP orthosteric binding screen
T12 construct: Psychoactive Drug Screening Program (PDSP)
From the text: as §1

[17] = biological target: human OT receptor (Homo sapiens, UniProt P30559); assay: Orthosteric binding against [3H]OT
human OT receptor, sequence (P30559 whole entry): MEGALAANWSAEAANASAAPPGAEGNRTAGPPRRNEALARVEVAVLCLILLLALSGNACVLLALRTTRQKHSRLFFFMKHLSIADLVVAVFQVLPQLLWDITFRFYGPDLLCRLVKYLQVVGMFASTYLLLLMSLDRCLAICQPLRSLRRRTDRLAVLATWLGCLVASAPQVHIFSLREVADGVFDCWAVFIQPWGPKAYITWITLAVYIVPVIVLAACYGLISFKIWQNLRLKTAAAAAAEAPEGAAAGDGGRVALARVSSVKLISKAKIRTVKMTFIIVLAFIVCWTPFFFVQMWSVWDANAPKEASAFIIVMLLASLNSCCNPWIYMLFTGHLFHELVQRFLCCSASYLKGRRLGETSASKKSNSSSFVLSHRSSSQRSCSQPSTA

T9 sequence (P46098 24-478, species assumed): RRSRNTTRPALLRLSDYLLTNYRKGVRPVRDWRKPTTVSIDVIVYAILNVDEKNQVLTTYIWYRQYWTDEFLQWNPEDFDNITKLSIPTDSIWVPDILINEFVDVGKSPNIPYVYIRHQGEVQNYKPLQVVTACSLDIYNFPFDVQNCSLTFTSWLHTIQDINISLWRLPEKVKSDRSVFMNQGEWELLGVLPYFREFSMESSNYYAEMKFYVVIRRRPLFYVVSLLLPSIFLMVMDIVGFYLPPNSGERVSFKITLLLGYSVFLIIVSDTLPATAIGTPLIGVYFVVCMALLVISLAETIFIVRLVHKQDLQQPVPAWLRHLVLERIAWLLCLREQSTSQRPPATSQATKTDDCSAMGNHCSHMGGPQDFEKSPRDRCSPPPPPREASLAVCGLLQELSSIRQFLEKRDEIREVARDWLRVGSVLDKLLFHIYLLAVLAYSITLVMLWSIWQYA
T7 sequence (P47898 whole entry, species assumed): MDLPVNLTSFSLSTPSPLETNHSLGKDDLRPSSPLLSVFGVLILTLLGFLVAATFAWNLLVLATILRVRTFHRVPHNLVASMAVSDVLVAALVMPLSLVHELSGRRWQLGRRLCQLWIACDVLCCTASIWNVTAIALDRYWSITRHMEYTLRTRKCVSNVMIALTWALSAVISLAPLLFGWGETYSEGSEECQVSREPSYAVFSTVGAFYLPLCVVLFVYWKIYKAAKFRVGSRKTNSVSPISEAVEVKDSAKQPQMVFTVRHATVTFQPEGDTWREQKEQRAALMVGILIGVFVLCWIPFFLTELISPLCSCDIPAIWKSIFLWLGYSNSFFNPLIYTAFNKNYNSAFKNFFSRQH
T1 sequence (P35367 whole entry): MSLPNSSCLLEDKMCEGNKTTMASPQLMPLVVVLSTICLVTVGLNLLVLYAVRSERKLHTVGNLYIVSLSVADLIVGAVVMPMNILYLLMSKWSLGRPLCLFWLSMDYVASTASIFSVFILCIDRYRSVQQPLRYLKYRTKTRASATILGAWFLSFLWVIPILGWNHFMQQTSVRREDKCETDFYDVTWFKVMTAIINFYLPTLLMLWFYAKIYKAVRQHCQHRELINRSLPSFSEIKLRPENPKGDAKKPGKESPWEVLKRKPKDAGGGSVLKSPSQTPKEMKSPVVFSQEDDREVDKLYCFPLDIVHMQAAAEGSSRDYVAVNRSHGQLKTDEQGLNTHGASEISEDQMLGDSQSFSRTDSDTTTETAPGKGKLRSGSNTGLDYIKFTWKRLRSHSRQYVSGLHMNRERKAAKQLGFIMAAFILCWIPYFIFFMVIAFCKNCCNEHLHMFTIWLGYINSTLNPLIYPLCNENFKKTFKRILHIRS
T12 sequence (P08912 whole entry): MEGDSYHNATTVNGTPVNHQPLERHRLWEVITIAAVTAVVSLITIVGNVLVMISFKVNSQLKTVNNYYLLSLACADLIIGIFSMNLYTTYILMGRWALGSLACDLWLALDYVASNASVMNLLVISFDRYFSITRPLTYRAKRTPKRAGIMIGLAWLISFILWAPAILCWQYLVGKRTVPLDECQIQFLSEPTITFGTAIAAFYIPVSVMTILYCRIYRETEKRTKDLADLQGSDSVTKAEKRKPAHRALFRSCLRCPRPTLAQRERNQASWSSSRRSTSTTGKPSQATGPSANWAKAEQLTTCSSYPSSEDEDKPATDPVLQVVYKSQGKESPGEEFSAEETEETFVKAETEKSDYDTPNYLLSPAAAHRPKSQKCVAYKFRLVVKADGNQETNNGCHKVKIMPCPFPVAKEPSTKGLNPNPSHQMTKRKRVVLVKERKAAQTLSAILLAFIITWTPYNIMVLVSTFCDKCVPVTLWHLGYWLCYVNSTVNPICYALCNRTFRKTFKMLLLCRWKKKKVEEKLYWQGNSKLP
T6 sequence (P34969 whole entry, species assumed): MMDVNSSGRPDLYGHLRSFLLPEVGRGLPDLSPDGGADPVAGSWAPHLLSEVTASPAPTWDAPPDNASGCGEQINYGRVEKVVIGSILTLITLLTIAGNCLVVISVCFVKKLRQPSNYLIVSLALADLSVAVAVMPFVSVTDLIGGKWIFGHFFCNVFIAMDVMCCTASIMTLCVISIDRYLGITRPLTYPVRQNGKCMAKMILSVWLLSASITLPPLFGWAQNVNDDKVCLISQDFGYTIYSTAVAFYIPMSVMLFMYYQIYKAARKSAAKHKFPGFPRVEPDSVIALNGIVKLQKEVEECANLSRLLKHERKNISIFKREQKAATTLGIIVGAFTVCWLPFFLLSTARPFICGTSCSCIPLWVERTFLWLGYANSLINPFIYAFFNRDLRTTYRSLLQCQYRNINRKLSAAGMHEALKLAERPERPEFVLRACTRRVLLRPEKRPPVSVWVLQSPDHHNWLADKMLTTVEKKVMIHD
human V1a receptor, sequence (P37288 whole entry): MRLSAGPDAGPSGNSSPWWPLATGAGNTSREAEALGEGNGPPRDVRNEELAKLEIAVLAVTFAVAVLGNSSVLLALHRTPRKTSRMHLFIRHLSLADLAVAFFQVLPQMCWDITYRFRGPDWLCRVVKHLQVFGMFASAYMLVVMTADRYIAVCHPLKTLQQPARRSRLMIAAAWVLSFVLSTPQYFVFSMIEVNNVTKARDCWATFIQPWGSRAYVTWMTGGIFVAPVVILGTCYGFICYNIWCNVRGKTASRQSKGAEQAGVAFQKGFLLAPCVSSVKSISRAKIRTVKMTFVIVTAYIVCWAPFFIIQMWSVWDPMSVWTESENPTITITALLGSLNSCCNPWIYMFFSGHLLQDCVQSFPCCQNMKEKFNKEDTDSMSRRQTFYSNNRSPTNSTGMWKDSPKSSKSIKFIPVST
T2 sequence (P07550 whole entry): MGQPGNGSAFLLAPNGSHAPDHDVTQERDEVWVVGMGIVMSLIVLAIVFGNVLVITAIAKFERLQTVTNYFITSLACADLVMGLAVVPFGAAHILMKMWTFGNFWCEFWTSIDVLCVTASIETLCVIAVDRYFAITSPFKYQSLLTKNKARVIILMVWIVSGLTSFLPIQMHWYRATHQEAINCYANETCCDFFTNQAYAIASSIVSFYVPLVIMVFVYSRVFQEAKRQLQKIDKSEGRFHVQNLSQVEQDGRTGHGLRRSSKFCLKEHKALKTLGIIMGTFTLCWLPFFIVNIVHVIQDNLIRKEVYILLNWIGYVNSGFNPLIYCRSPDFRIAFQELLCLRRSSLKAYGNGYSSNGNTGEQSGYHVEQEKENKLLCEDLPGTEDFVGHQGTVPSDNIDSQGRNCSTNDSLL
T4 sequence (P28221 whole entry, species assumed): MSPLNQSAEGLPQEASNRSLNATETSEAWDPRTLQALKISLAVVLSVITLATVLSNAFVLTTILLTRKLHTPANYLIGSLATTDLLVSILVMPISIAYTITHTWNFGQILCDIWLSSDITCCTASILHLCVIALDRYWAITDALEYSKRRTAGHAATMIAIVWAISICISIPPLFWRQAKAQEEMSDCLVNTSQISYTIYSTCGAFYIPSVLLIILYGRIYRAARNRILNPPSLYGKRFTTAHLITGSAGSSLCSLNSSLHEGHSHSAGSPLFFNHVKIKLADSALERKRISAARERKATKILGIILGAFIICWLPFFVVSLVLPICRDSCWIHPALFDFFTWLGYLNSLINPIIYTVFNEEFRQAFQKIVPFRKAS
T8 sequence (P35368 whole entry): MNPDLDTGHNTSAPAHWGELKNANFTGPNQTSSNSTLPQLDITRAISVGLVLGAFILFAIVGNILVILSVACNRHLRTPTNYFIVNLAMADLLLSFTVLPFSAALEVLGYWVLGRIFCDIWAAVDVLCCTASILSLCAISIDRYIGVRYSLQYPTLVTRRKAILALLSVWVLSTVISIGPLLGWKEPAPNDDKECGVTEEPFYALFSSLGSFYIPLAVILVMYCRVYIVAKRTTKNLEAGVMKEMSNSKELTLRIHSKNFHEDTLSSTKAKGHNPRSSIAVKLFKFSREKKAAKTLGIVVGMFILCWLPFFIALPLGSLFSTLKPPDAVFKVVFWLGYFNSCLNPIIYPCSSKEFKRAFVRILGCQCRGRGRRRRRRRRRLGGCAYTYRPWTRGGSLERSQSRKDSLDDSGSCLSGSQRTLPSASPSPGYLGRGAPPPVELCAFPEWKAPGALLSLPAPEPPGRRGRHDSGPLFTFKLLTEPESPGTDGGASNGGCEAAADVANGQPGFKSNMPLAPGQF
T5 sequence (P18089 whole entry): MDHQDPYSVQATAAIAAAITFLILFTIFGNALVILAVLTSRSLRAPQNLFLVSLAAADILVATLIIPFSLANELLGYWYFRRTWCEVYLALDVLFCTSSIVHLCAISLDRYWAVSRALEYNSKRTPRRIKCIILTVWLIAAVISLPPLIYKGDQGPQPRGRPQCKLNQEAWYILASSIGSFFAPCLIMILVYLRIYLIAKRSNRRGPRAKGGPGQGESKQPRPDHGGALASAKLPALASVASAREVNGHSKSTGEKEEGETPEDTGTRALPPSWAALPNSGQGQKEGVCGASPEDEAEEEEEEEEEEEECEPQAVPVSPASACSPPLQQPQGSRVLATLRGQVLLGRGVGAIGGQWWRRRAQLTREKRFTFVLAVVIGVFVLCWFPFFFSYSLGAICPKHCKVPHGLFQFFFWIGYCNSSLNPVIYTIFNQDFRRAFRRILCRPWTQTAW

## Cl.Cn1ncc2c1Nc1ccccc1NC2 [SOC-1]
[1]
  IC50: > 10 µM
[2]; 1 mg/kg IV
  Hunched posture or gait- mild (incidence): 0
  Number of abnormalities detected: (incidence): 3
  Palpebral closure- mild/moderate (incidence): 0
  Piloerection- mild (incidence): 0
  Reduced activity- mild (incidence): 0
[2]; 3 mg/kg IV
  Hunched posture or gait- mild (incidence): 0
  Number of abnormalities detected: (incidence): 3
  Palpebral closure- mild/moderate (incidence): 0
  Piloerection- mild (incidence): 0
  Reduced activity- mild (incidence): 0
[2]; 10 mg/kg IV in 0.9% saline
  reaction at the time of dose administration: exaggerated flinch reaction and vocalisation
[2]; 10 mg/kg IV
  Hunched posture or gait- mild (incidence): 3
  Number of abnormalities detected: (incidence): 0
  Palpebral closure- mild/moderate (incidence): 0
  Piloerection- mild (incidence): 3
  Reduced activity- mild (incidence): 0
[2]; 30 mg/kg IV
  Hunched posture or gait- mild (incidence): 0
  Number of abnormalities detected: (incidence): 0
  Palpebral closure- mild/moderate (incidence): 1
  Piloerection- mild (incidence): 3
  Reduced activity- mild (incidence): 2
[2]; 1, 3, 10 and 30 mg/kg IV
  effect on body weight: no effects of SOC-1 test item treatment on body weight
  injection site reactions: no findings of injection site reactions
  morbidity and mortality: no unscheduled deaths or findings of morbidity
  tolerability: tolerated in this study at all dose levels
[2]; 10 and 30 mg/kg IV
  clinical findings post-dose on Study Day 1: piloerection, hunched posture and gait and palpebral closure
  time to resolution of clinical findings post-dose: 4 to 24 h
[2]; Group 1 (1 mg/kg IV), day 1
  Bodyweight, Mean: 208.233 g
[2]; Group 1 (1 mg/kg IV), day 2
  Bodyweight, Mean: 203.733 g
[2]; Group 1 (1 mg/kg IV), day 3
  Bodyweight, Mean: 204.933 g
[2]; Group 1 (1 mg/kg IV), day 4
  Bodyweight, Mean: 208.100 g
[2]; Group 1 (1 mg/kg IV), day 5
  Bodyweight, Mean: 210.467 g
[2]; Group 1 (1 mg/kg IV), day 6
  Bodyweight, Mean: 215.300 g
[2]; Group 1 (1 mg/kg IV), day 7
  Bodyweight, Mean: 209.833 g
[2]; Group 1 (1 mg/kg IV), day 8
  Bodyweight, Mean: 216.633 g
[2]; Group 2 (3 mg/kg IV), day 1
  Bodyweight, Mean: 196.867 g
[2]; Group 2 (3 mg/kg IV), day 2
  Bodyweight, Mean: 193.700 g
[2]; Group 2 (3 mg/kg IV), day 3
  Bodyweight, Mean: 198.733 g
[2]; Group 2 (3 mg/kg IV), day 4
  Bodyweight, Mean: 199.233 g
[2]; Group 2 (3 mg/kg IV), day 5
  Bodyweight, Mean: 201.200 g
[2]; Group 2 (3 mg/kg IV), day 6
  Bodyweight, Mean: 204.733 g
[2]; Group 2 (3 mg/kg IV), day 7
  Bodyweight, Mean: 201.967 g
[2]; Group 2 (3 mg/kg IV), day 8
  Bodyweight, Mean: 206.333 g
[2]; Group 3 (10 mg/kg IV), day 1
  Bodyweight, Mean: 205.933 g
[2]; Group 3 (10 mg/kg IV), day 2
  Bodyweight, Mean: 207.267 g
[2]; Group 3 (10 mg/kg IV), day 3
  Bodyweight, Mean: 214.533 g
[2]; Group 3 (10 mg/kg IV), day 4
  Bodyweight, Mean: 216.100 g
[2]; Group 3 (10 mg/kg IV), day 5
  Bodyweight, Mean: 211.733 g
[2]; Group 3 (10 mg/kg IV), day 6
  Bodyweight, Mean: 213.433 g
[2]; Group 3 (10 mg/kg IV), day 7
  Bodyweight, Mean: 219.000 g
[2]; Group 3 (10 mg/kg IV), day 8
  Bodyweight, Mean: 218.900 g
[2]; Group 4 (30 mg/kg IV), day 1
  Bodyweight, Mean: 206.833 g
[2]; Group 4 (30 mg/kg IV), day 2
  Bodyweight, Mean: 202.567 g
[2]; Group 4 (30 mg/kg IV), day 3
  Bodyweight, Mean: 210.967 g
[2]; Group 4 (30 mg/kg IV), day 4
  Bodyweight, Mean: 216.500 g
[2]; Group 4 (30 mg/kg IV), day 5
  Bodyweight, Mean: 209.667 g
[2]; Group 4 (30 mg/kg IV), day 6
  Bodyweight, Mean: 213.367 g
[2]; Group 4 (30 mg/kg IV), day 7
  Bodyweight, Mean: 222.300 g
[2]; Group 4 (30 mg/kg IV), day 8
  Bodyweight, Mean: 219.767 g
[2]; bolus intravenous injection, female rats
  acute tolerated dose: at least 30 mg/kg
[3]
  half-life at 500 nM: > 6 h
[4]
  affinity for H1: no notable affinity
[5]
  affinity for Beta2: no notable affinity
[6]
  affinity for SERT: no notable affinity
[7]
  affinity for Sigma 2: no notable affinity
[8]
  affinity for 5-HT1D: no notable affinity
[9]
  affinity for Alpha2B: no notable affinity
[10]
  affinity for 5-HT7: no notable affinity
[11]
  affinity for 5-ht5a: no notable affinity
[12]
  affinity for Alpha1B: no notable affinity
[13]
  affinity for 5-HT3: no notable affinity
[14]
  affinity for Alpha1D: no notable affinity
[15]
  affinity for PBR: no notable affinity
[16]
  affinity for M5: no notable affinity
[17]
  IC50: > 10 µM
